Experimental data: patent US4826984A, “Heteroarotinoid compounds as anticancer agents” (The Board of Regents for the Oklahoma Agricultural and …, priority 1987, dated 1989)
“And” between values parts separate entries of the source, which are not always exact repeats. Equal entries are not always repeated. “Also recorded” adds a separate entry of the source. Where two headings read alike, the source gives them in different places.

How the values were obtained:
[1] = test system: tracheal organ cultures obtained from vitamin A deficient hamsters; assay: tissue or blood; type: cell-based, hamster; details: for EC50: Mesocricetus auratus, dose for reversal of keratinization in epithelium of 50% of retinoid-deficient hamster tracheas in organ culture, trans-retinoic acid run with each compound, read-out: ED50 (the source's name); for activity relative to all trans-retinoic acid: log units less than the standard; for activity (in words): reversal of keratinization
Excerpt: An evaluation of the anticancer properties of the heteroarotinoids was made via the standard hamster tracheal organ culture bioassay (see D. L. Newton, W. R. Henderson, and M. B. Sporn in Structure-Activity Relationships of Retinoids, National Cancer Institute, Revised Edition, Feb. 26, 1980; and D. L. Newton, W. R. Henderson, and M. B. Sporn, Cancer Research, 40, 3413 [1980]). The assay involves the ability of a test compound in vitro to reverse keratinization in tracheal organ cultures obtained from vitamin A deficient hamsters. The relationship of vitamin A deficient epithelial tissues and precancerous lesions is well known (see C. E. Orfanos, Retinoids-Advances in Basic Research and Therapy, Springer-Verlag, New York, 1981). For example, the addition of retinoids can reverse the anaplastic epithelial lesions induced in prostate glands by chemical carcinogens (see D. P. Chopra and L. J. Wilkoff, Proc. Am Assoc. Cancer Research, 16, 35 (1975); and I. Lasnitzki, British Journal of Cancer, 9, 434 [1955]). The basic procedure for the bioassay involving the vitamin A deficient hamster tracheal organ culture is presented below with the results obtained for some of the compositions.
The harvested tracheas were cultured in a serum-free medium and were gassed with 50% O2, 45% N2, and 5% CO2. The serum-free culture consists of CMRL Medium 1066 with crystalline bovine insulin (1.0 μg/mL), hydrocortisone hemisuccinate (0.1 μg/mL), glutamine (2 mM), pencillin (100 inits/mL), and streptomycin (100 μg/mL). The cultures were incubated for 3 days at 35°-36° C. After incubation in the retinoid-free medium, some of the tracheas were harvested. Most of the specimens had significant squamous metaplasia. The remaining cultures were divided into 3 groups. The first group was treated with the experimental heteroarotinoid in spectrograde dimethyl sulfoxide (DMSO) at concentrations of 10^-8 M, 10^-9 M, and 10^-10 M (final concentration of DMSO in culture medium was 0.1%). […] A final culture was prepared with only DMSO present.
The culture medium was changed three times per week for 10 days. At the end of that time, all tracheas were harvested and fixed in a 4% (or sometimes 10%) formaldehyde-1% glutaraldehyde solution. The material was then embedded in paraffin and cross-sections of the tracheas were examined under a microscope for the presence of keratin or keratohyaline granules. A synthetic retinoid was judged as having good anticancer activity if neither keratin nor keratohyaline granules were present or if only keratohyaline granules were […]. […] Sloughing of the cells in the culture studies was common with the toxic all trans-retinotic acid but was not observed with the heteroarotinoids in this work.
^a ED50 (M) is the dose for reversal of keratinization in
epithelium of 50% of retinoiddeficient hamster tracheas in organ culture.

[2] = test system: ornithine decarboxylase (ODC); assay: suppression of TPA induced ornithine decarboxylase (ODC) in mouse skin; type: in vivo; details: for activity in inhibiting ODC induction by TPA (in words): mouse, in vivo
Description: In the ODC assay, either 13-cis-retinoic acid or trans-retinoic acid was employed. The following Table summarizes the result of the ODC assays.
In the screening tests of the Table, the selected retinoids in 0.2 ml of acetone were applied 1 hour before the application of 10 nmole of TPA to the shaved backs of mice; the mice where then sacrificed for ODC assay 5 hours after TPA treatment. Epidermus was separated, homogenized, and centrifuged at 30,000×g. Soluble epidermal ODC activity was assayed. The retinoids were evaluated in three independent experiments (3 groups of mice with 3 mice per group) and the results from the experiments were normalized (% inhibition) for comparison. […] Which standard is used appears to be relatively unimportant for determining activity in the assay, but the data presented in the Table identifies the standard for sake of clarity and accuracy of presentation. Thus, the presence of the heteroatom in these arotinoids has not eliminated biological activity. […] Consequently, the nature of the terminus group is also important.

[3] = test system: HL-60 cells; assay: induction of differentiation of HL-60 cells (NBT reduction); type: cell-based, human; details: for cells induced to differentiate: 3 μM; for EC50: Homo sapiens
Description: In order to evaluate the efficacy of the heteroarotinoids to induce HL-60 cell differentiation along the granulocytic maturation pathway, HL-60 cells were grown in a serum-free medium consisting of HRPMI 1640 supplemented with […] 4-(2-hydroxyethyl)-1-piperazineethane sulfonic acid, 5 μg of insulin/mL, and 5 μg of transferrin/mL. These mature cells, unlike the uninduced HL-60, produced superoxide anion when simulated with an appropriate agent, such as TPA. The ability of the individual cells to produce superoxide can be measured by incubating cells with the water-soluble yellow dye, nitroblue tetrazolium (NBT). NBT is reduced to a water-insoluble blue-black formazan by superoxide. This formazan precipitate is associated with those cells that produce superoxide. Thus, the percentage of cells in a population that produce superoxide (NBT-positive cells) can be enumerated under a light microscope.
After incubation for 4 days at 37° C. in a humidified atmosphere of 5% CO2 and air, the capacity of the cells to reduce NBT was determined. Viable cells (10^6) were harvested by centrifugation and suspended in 0.5 mL of RPMI 1640 containing 20% fetal bovine serum. This cell suspension was mixed with an equal volume of phosphate buffered saline containing 1 mg of NBT/mL and […]. The reaction mixture was incubated at 37° C. for 25 minutes, and the reaction was terminated by cooling in an ice water bath. Cytospin slides were prepared from a portion of this reaction mixture and stained with Wright-Giemsa. A minimum of 200 cells were counted under light microscopy to determine the percentage of cells with cell-associated formazan.

[4] = single large doses; cited from earlier work
[5] = test system: tracheal organ cultures obtained from vitamin A deficient hamsters; details: value stated for the standard in the method; read-out: ED50 (the source's name); cited from earlier work
[6] = 17 nmol retinoid + TPA, first experiment
[7] = 17 nmol retinoid + TPA, second experiment
[8] = 13-cis-retinoic acid as the standard
[9] = HL-60, 96 h, 4 days at 37° C., read-out: ED50 (half-maximal response)
[10] = 34 nmol retinoid + TPA, third experiment (standard trans-retinoic acid)
[11] = trans-retinoic acid as a standard
[12] = 34 nmol retinoid + TPA, second experiment (standard 13-cis-retinoic acid)

## CCOC(=O)c1ccc(/C=C(\C)c2ccc3c(c2)C(C)(C)CCS3)cc1 [1 (X = S, R = C2 H5), Ethyl (E)-4-[2-(3,4-dihydro-4,4-dimethyl-2H-1-benzothiopyran-6-yl)-1-propenyl]benzoate]
[1]; 10^-9 M
  % Active: 100%
[1]; 10^-10 M
  % Active: 53.8%
[1]; 10^-11 M
  % Active: 28.6%
[1]; 10^-12 M
  % Active: 33.7%
[1]
  EC50: 0.06 nM
  activity relative to all trans-retinoic acid: approximately one-half log unit less than the all trans-retinoic acid
  activity (in words): very good activity

## CC1=C(/C=C/C(C)=C/C=C/C(C)=C\C(=O)O)C(C)(C)CCC1 [13-cis-retinoic acid, reference compound]
[2]; [6]
  % of Inhibition as Compared to Control: 89%
  ODC Activity: 0.1 ± 0.01 nmol CO2 /30 min/mg protein
[2]; [7]
  % of Inhibition as Compared to Control: 92%
  ODC Activity: 0.14 ± 0.04 nmol CO2 /60 min/mg protein
[2]; [8]
  relative activities in suppressing TPA induction of ODC: 13-cis-retinoic acid 31>34

## CCOC(=O)c1ccc(/C=C(\C)c2ccc3c(c2)C(C)(C)CCO3)cc1 [(X = O, R = C2 H5), Ethyl (E)-4-[2-(3,4-Dihydro-4,4-dimethyl-2H-1-benzopyran-6-yl)-1-propenyl]benzoate]
[1]; 10^-9 M
  % Active: 100%
[1]; 10^-10 M
  % Active: 50.0%
[1]; 10^-11 M
  % Active: 28.2%
[1]
  EC50: 0.1 nM
  activity relative to all trans-retinoic acid: only one log unit less than the standard all trans-retinoic acid
  activity (in words): good activity

## C/C(=C\c1ccc(C(=O)O)cc1)c1ccc2c(c1)C(C)(C)CCO2 [(X = O, R = H), (E)-4-[2-(3,4-Dihydro-4,4-dimethyl-2H-1-benzopyran-6-yl)-1-propenyl]benzoic Acid]
[1]; 10^-8 M
  % Active: 100%
[1]; 10^-9 M
  % Active: 100%
[1]; 10^-10 M
  % Active: 57.1%
[1]; 10^-11 M
  % Active: 11.14%
[1]
  EC50: 0.2 nM
  activity relative to all trans-retinoic acid: only one log unit less than the standard all trans-retinoic acid
  activity (in words): good activity

## CCOC(=O)c1ccc(/C=C(\C)c2ccc3c(c2)C(C)(C)CC[S+]3[O-])cc1 (centres unmarked) [(X = S)--O, R = C2 H5), Ethyl (E)-4-[2-(3,4-Dihydro-4,4-dimethyl-2H-1-benzothiopyran-1-oxo-6-yl)-1-propenyl]benzoate]
[1]; 10^-8 M
  % Active: 71.4%
[1]; 10^-9 M
  % Active: 71.4%
[1]; 10^-10 M
  % Active: 18.6%
[1]
  EC50: 0.6 nM
  activity (in words): less active but nevertheless displayed activity within the range of the standard

## C/C(=C\c1ccc(C(=O)O)cc1)c1ccc2c(c1)C(C)(C)CCO2 [acid derived from 34]
[3]
  cells induced to differentiate: approximately 15%
[3]; [9]
  EC50: > 3000 nM
[3]; HL-60, restated in discussion, read-out: ED50 (the source's name)
  EC50: < 3000 nM

## COC(=O)c1ccc(/C=C(\C)c2ccc3c(c2)C(C)(C)CO3)cc1 [compound 24, Methyl (E)-4-[2-(2,3-Dihydro-3,3-dimethyl-5-benzofuranyl)-1-propenyl]benzoate]
[3]
  cells induced to differentiate: 3 to 5%
[3]; [9]
  EC50: > 3000 nM
[2]; [10]
  % of Inhibition as Compared to Control: 72%
  ODC Activity: 1.5 ± 0.4 nmol CO2 /60 min/mg protein
[2]
  activity in inhibiting ODC induction by TPA (in words): strongest activity; also recorded: strong activity as compared to the control
[2]; [11]
  relative activities in suppressing TPA induction of ODC: trans-retinoic acid >24>35>36

## COC(=O)c1ccc(/C=C(/C)c2ccc3c(c2)C(C)(C)CO3)cc1 [compound 25]
[3]
  cells induced to differentiate: 3 to 5%

## C/C(=C\c1ccc(C(=O)O)cc1)c1ccc2c(c1)C(C)(C)CO2 [compound 26, (E)-4-[2-(2,3-Dihydro-3,3-dimethyl-5-benzofuranyl)-1-propenyl]benzoic acid]
[3]; [9]
  EC50: > 3000 nM

## COC(=O)c1ccc(/C=C(\C)c2ccc3c(c2)C(C)(C)CCO3)cc1 [compound 31, Methyl (E)-4-[2-(3,4-Dihydro-4,4-dimethyl-2-H-1-benzopyran-6-yl)-1-propenyl]benzoate]
[3]
  cells induced to differentiate: approximately 15%
[3]; [9]
  EC50: > 3000 nM
[2]; [12]
  % of Inhibition as Compared to Control: 43%
  ODC Activity: 0.95 ± 0.06 nmol CO2 /60 min/mg protein
[2]; [8]
  relative activities in suppressing TPA induction of ODC: 13-cis-retinoic acid 31>34
[2]
  activity in inhibiting ODC induction by TPA (in words): less active

## C/C(=C\c1ccc(C#N)cc1)c1ccc2c(c1)C(C)(C)CCO2 [compound 34]
[2]; [12]
  ODC Activity: 1.77 ± 0.32 nmol CO2 /60 min/mg protein
[2]; [8]
  relative activities in suppressing TPA induction of ODC: 13-cis-retinoic acid 31>34

## C/C(=C\c1ccc(CO)cc1)c1ccc2c(c1)C(C)(C)CCO2 [compound 35, (E)-4-[2-Methyl-2-(4,4-dimethyl-6-chromanyl)]benzyl Alcohol]
[3]; [9]
  EC50: > 3000 nM
[2]; [10]
  % of Inhibition as Compared to Control: 68%
  ODC Activity: 1.7 ± 0.1 nmol CO2 /60 min/mg protein
[2]
  activity in inhibiting ODC induction by TPA (in words): less active
[2]; [11]
  relative activities in suppressing TPA induction of ODC: trans-retinoic acid >24>35>36

## C/C(=C\c1ccc(C=O)cc1)c1ccc2c(c1)C(C)(C)CCO2 [compound 36]
[2]; [10]
  % of Inhibition as Compared to Control: 34%
  ODC Activity: 3.5 ± 0.2 nmol CO2 /60 min/mg protein
[2]
  activity in inhibiting ODC induction by TPA (in words): less active
[2]; [11]
  relative activities in suppressing TPA induction of ODC: trans-retinoic acid >24>35>36

## CC1=C(/C=C/C(C)=C/C=C/C(C)=C/C(=O)O)C(C)(C)CCC1 [trans-retinoic acid, all trans-retinoic acid, reference compound]
[4]
  acute toxicity: acutely toxic in single large doses
[2]; [10]
  % of Inhibition as Compared to Control: 81%
  ODC Activity: 1.0 ± 0.1 nmol CO2 /60 min/mg protein
[2]; [11]
  relative activities in suppressing TPA induction of ODC: trans-retinoic acid >24>35>36
[1]
  Sloughing of the cells in the culture studies: common
[1]; 10^-11 M
  % Active: 50.0% and 41.7% and 53.8%
[1]; 10^-12 M
  % Active: 16.7% and 33.3% and 23.1%
[1]; concentration printed 11^-11 M
  % Active: 50.0%
[1]; concentration printed 12^-12 M
  % Active: 23.1%
[5]
  EC50: 0.01 nM
